System: summer wheat (TRZAS; cv. Triso)
Experiment: Reduction of damage by mesosulfuron-methyl on summer wheat (greenhouse safener test, post-emergence)
Assay type: in vivo
Set-up: key: 0: no reduction in damage (appearance corresponding to the herbicide control); 1: slight reduction in damage; 2: distinct reduction in damage; 3: significant reduction in damage; 4: complete reduction in damage (appearance corresponding to the untreated control)
Conditions: safener 100 g/ha as WP spray at early leaf stage (BBCH10-BBCH12), then mesosulfuron-methyl 40-60 g/ha; visual assessment 9-13 days after application; crop plant TRZAS
Method: 2.1 Relative Action of Selected Compounds of the Invention Using the Example of Reduction of Damage by Mesosulfuron-Methyl on Summer Wheat (TRZAS) The seeds of the crop plants to be treated are laid out in sandy loam in plastic pots (diameter ˜4 cm), covered with soil and grown in a greenhouse under good conditions for germination and growth. The trial plants were treated at the early leaf stage (BBCH10-BBCH12). In the course of this, the inventive compounds of the general formula (I) formulated in the form of wettable powders (WP) were sprayed onto the above-ground parts of the plants as an aqueous suspension with a water application rate corresponding to 800 l/ha with addition of wetting agent (e.g. 0.2% Genapol-LRO or 0.2% Mero) in the specified dose. This was followed by the application of the herbicide. For this purpose, mesosulfuron-methyl, formulated in the form of water-dispersible granules (WG), was sprayed onto the above-ground parts of the plants in the form of an aqueous dispersion with a water application rate corresponding to 800 l/ha with addition of wetting agent (e.g. 0.2% Genapol-LRO or 1 l/ha Biopower) in a dose of 40-60 g/ha. […] 9-13 days after application, the efficacy of the test compounds was assessed visually. […]

SMILES: COC(=O)COc1nc(-c2ccc(F)cn2)n(-c2ccc(Cl)cn2)n1 [Example I.31-10, Methyl {[1-(5-chloropyridin-2-yl)-5-(5-fluoropyridin-2-yl)-1H-1,2,4-triazol-3-yl]oxy}acetate]
- Efficacy of the safener (efficacy code): 2

From patent US12606542B2, “[(1,5-diheteroaryl-1H-1,2,4-triazol-3-yl)oxy] acetic acid derivatives as safeners for the protection of useful plants and crop plants” (BAYER AKTIENGESELLSCHAFT, priority 2020, dated 2026)
